In US20140249097A1, “Inhibition of HIF-1 activation for Anti-Tumor and Anti-Inflammatory responses” (priority 2010, published 2014):
Counter-ions that a name gives are not always drawn.

Columns and labels:
[1] = tested on: HIF-1α; experiment: Western blotting of HIF-1α in MCF-7 cells; format: cell-based, human; conditions: normoxic MCF-7 cells
Description: (§1) Cell nuclear proteins were extracted using the NucBuster protein extraction kit (Novagen, Gibbstown, N.J., United States of America). Total cell lysates or cell nuclear extractions were quantified using a protein assay reagent (Bio-Rad). Equal amounts of protein sample were separated by Bis-HCl gel (Bio-Rad) and transferred to a […] Immun-Blot PVDF membrane (Bio-Rad).

[2] = tested on: iNOS; experiment: Western blotting of iNOS in 4T1ODD-luc cells; format: cell-based, mouse
Description: as §1

[3] = tested on: HIF-1α; experiment: Immunohistochemical staining of HIF-1α in orthotopic 4T1ODD-luc tumors; format: in vivo, mice; conditions: MTD doxorubicin vs saline, post-treatment days 1, 4, and 7
Description: (§2) Five mice from a doxorubicin-treated group or a control group that received saline were sacrificed on days 0, 1, 4, 7 and 16. The hypoxia marker pimonidazole (70 mg/kg i.p., NPI, Raleigh, N.C., United States of America) and the perfusion marker dye Hoechst 33342 (1 mg/mouse i.v., Sigma-Aldrich) were administered as previously described (Cao et al., 2005). Upon excision, tumors were snap-frozen in liquid nitrogen, stored at −80° C., and cut into 10 μm frozen sections. HIF-1α fluorescent staining was performed with anti-HIF-1α antibody (Novus). Direct pimonidazole labeling was performed using Hypoxyprobe (mouse monoclonal IgG1, NPI, Raleigh, N.C., United States of America) and Zenon Alexa Fluor 555 mouse IgG labeling kit (Invitrogen). Entire tumor sections were imaged by scanning fluorescent microscopy. Individual scanned images were then reconstructed into one composite image of the entire section by Metamorph. […] Eight random fields (10×) per frozen section were analyzed to determine the mean tumor vascular fraction as the percentage of vessel area in total tumor area in each field. Cell proliferation was determined by immunostaining with a rabbit polyclonal anti-Ki67 antibody (ab15580, 1:100 dilution, Abcam, Cambridge, Massachusettes, United States of America) and an Alexa 594-conjugated goat anti-rabbit IgG antibody (1:300 dilution, Invitrogen). […]

[4] = tested on: tumor vasculature; experiment: Fluorescent staining of tumor vasculature in orthotopic 4T1ODD-luc tumors; format: in vivo, mice
Description: Five mice from a doxorubicin-treated group or a control group that received saline were sacrificed on days 0, 1, 4, 7 and 16. The hypoxia marker pimonidazole (70 mg/kg i.p., NPI, Raleigh, N.C., United States of America) and the perfusion marker dye Hoechst 33342 (1 mg/mouse i.v., Sigma-Aldrich) were administered as previously described (Cao et al., 2005). Upon excision, tumors were snap-frozen in liquid nitrogen, stored at −80° C., and cut into 10 μm frozen sections. HIF-1α fluorescent staining was performed with anti-HIF-1α antibody (Novus). Direct pimonidazole labeling was performed using Hypoxyprobe (mouse monoclonal IgG1, NPI, Raleigh, N.C., United States of America) and Zenon Alexa Fluor 555 mouse IgG labeling kit (Invitrogen). Entire tumor sections were imaged by scanning fluorescent microscopy. Individual scanned images were then reconstructed into one composite image of the entire section by Metamorph. Tumor vasculature was stained by fluorescein-labeled Griffonia simplicifolia lectin I (isolectin B4) (1:200 dilution, Vector Laboratories, Burlingame, Calif., United States of America) as previously described (Cao et al., 2007). Eight random fields (10×) per frozen section were analyzed to determine the mean tumor vascular fraction as the percentage of vessel area in total tumor area in each field. Cell proliferation was determined by immunostaining with a rabbit polyclonal anti-Ki67 antibody (ab15580, 1:100 dilution, Abcam, Cambridge, Massachusettes, United States of America) and an Alexa 594-conjugated goat anti-rabbit IgG antibody (1:300 dilution, Invitrogen). Tumor activated macrophages were stained with rat anti-mouse CD68 antibody (1:100 dilution, Serotec, Raleigh, N.C., United States of America) and an Alexa 488-conjugated anti-rat IgG antibody (1:200 dilution, Invitrogen).

[5] = tested on: iNOS; experiment: Real-time PCR of iNOS mRNA in 4T1ODD-luc cells; format: cell-based, mouse; conditions: doxorubicin vs control treatment
Description: Total RNA was prepared using the miRVana extraction kit (Applied Biosystems, Austin, Tex., United States of America). 1 μg of total RNA was reverse transcribed into cDNA using the iScript cDNA synthesis kit (BioRad, Hercules, Calif., United States of America). Real-time PCR was performed on an ABI7900HT Fast Real-Time PCR System using Power SYBRGreen PCR Mix (Applied Biosystems). PCR products were verified by melting curves. The threshold cycle (CT) values for each gene were normalized to expression levels of β-actin. The primers used were as follows: mouse iNOS, forward 5′-[…]-3′ (SEQ ID NO: 22); reverse 5′-[…]-3′ (SEQ ID NO: 23); the same β-actin primers were used for both human and mouse cell lines, forward 5′-[…]-3′ (SEQ ID NO: 24); and reverse 5′-[…]-3′ (SEQ ID NO: 25).

[6] = tested on: HIF-1α; experiment: HIF-1α ODD-luciferase reporter in normoxic 4T1ODD-luc cells; format: cell-based, mouse
Description: (§3) HIF-1α ODD-luciferase reporter activity was detected and quantified by the Xenogen IVIS bioluminescence imaging system (Xenogen Corporation, Alameda, Calif., United States of America) as previously described (Li et al., 2007). For in vitro imaging of cultured cells, 1×10^5 4 T1ODD-luc cells per well of 12-well plates were cultured with 2 ml culture medium for 24 hours. Then the cells were treated with doxorubicin hydrochloride (0.1, 1, or 10 μg/ml, Bedford Laboratories, Bedford, Ohio, United States of America) or an equal volume of control vehicle for 3 days under normoxic conditions (21% O2, 5% CO2). […] The activity of HIF-1α luciferase reporter was quantified daily. In animal studies, the bioluminescence of each tumor was detected on day 0 (before doxorubicin treatment) and on post-treatment days 1-7, 10, 13, and 16. During each imaging session mice were anesthetized with inhaled isoflurane and imaged 10 minutes after intraperitoneal (i.p.) injection of luciferin (150 mg/kg). Tumor bioluminescence intensity was normalized to the tumor volume at each time point.

[7] = tested on: HIF-1α; experiment: Bioluminescent imaging of orthotopic 4T1ODD-luc tumors in nude mice; format: in vivo
Description: as §3
5×10^6 4 T1ODD-luc tumor cells in 200 μl PBS were injected orthotopically in the right thoracic mammary fat pad of female NCr/nu nude mice (Moeller et al., 2004). Tumor volumes were calculated as follows: volume=(length×width^2×π)/6. When tumor size reached 7 mm in diameter, animals were randomized into two groups: the control mice were injected with 100 μl saline and the treated mice were injected once with the maximal tolerated dose (MTD) of doxorubicin (10 mg/kg) via tail vein (Vanhoefer et al., 1997). Tumor volume and luciferase reporter activity in vivo were measured on days 0, 1-7, 10, 13 and 16.

[8] = tested on: VEGF; experiment: Mouse VEGF ELISA of 4T1ODD-luc conditioned medium; format: cell-based; conditions: normoxic, doxorubicin 0.1, 1, and 10 μg/ml
Description: 1×10^5 4 T1ODD-luc cells per well of 12-well plate were cultured with 1 ml cell culture medium overnight. The cells were treated with 0.1, 1, or 10 μg/ml of doxorubicin or without doxorubicin for 24, 48, and 72 hours. Secreted mouse VEGF in the conditioned medium at each time point was quantified by mouse VEGF ELISA kit (R & D Systems, Minneapolis, Minn., United States of America) and normalized to the number of living cells.

[9] = tested on: perfused tumor fraction; experiment: Hoechst 33342 labeling of tumor perfusion in orthotopic 4T1ODD-luc tumors; format: in vivo, mice; conditions: doxorubicin-treated vs control tumors
Description: as §2

[10] = tested on: HIF-1α; experiment: Western blotting of HIF-1α in 4T1ODD-luc cells; format: cell-based, mouse; conditions: normoxic, total cell lysate and nuclear extraction, 48 hours post-treatment
Description: as §1

[11] = tested on: hypoxic tumor fraction; experiment: Pimonidazole staining of tumor hypoxia in orthotopic 4T1ODD-luc tumors; format: in vivo, mice; conditions: doxorubicin-treated vs control tumors
Description: as §2

[12] = tested on: nitric oxide; experiment: Flow cytometry of intracellular nitric oxide (DAF-FM) in 4T1ODD-luc cells; format: cell-based, mouse; conditions: 1 μg/ml and 5 μg/ml doxorubicin, 48 hours, vs control
Description: To detect intracellular nitric oxide levels, 1×10^6 4 T1ODD-luc cells were plated per 10-cm cell culture dish with 8 ml of cell culture medium. Doxorubicin (1 μg/ml and 5 μg/ml) or an equal volume of control solvent was added into the cell culture medium the next day and treatment continued for 48 hours. […] Equal amounts of solvent were added for the control group. To quantify intracellular nitric oxide, a single cell suspension was made after trypsinization. 2 ml of 5 uM nitric oxide-specific probe DAF-FM diacetate (4-amino-5-methylamino-2′,7′-difluorofluorescein diacetate) (Invitrogen) were incubated with each cell sample at room temperature in darkness for 30 minutes. The cells were washed with PBS and centrifuged to remove the excess DAF-FM diacetate probe. The cells were resuspended into 500 ul of phenol-free DMEM and incubated for another 20 minutes for complete intracellular deacetylation of the probe. The mean fluorescence intensity of the deacetylated DAF-FM reacted with nitric oxide was quantified by FACSCalibur flow cytometer in FITC channel (Becton Dickinson, Franklin Lakes, N.J., United States of America).

[13] = tested on: tumor-activated macrophages; experiment: CD68 staining of tumor-activated macrophages in orthotopic 4T1ODD-luc tumors; format: in vivo, mice; conditions: doxorubicin-treated vs saline-treated tumors
Description: as §2

[14] = tested on: STAT1; experiment: Western blotting of STAT1 and phospho-STAT1 in 4T1ODD-luc cells; format: cell-based, mouse; conditions: doxorubicin 1 μg/ml
Description: as §1

## COc1cccc2c1C(=O)c1c(O)c3c(c(O)c1C2=O)C[C@@](O)(C(=O)CO)C[C@@H]3O[C@H]1C[C@H](N)[C@H](O)[C@H](C)O1 [doxorubicin, doxorubicin hydrochloride]
[1]
  HIF-1α protein: led to normoxic HIF-1α accumulation
[2]; doxorubicin 1 μg/ml, normoxic conditions
  iNOS expression: stimulated iNOS expression
[2]; doxorubicin alone, first 24 hours post-treatment
  iNOS expression: initial decrease in iNOS expression
[2]; doxorubicin, 48 hours post-treatment
  iNOS expression: increase in iNOS expression
[3]
  tumor HIF-1α positive fraction: significantly increased the HIF-1α fraction
[4]; doxorubicin vs control, first 24 hours
  relative tumor vascular fraction: significant decrease in tumor vascular fraction
[4]; doxorubicin vs saline, day 4 post-treatment
  tumor vessels by fluorescent staining: more tumor vessels
[4]; doxorubicin vs saline, day 16
  relative tumor vascular fraction: still significantly higher compared to the saline-treated tumors
[4]; doxorubicin-treated tumors, post-treatment day 4 (peak)
  mean relative tumor vascular fraction: even higher than before chemotherapy treatment
[5]
  iNOS mRNA level: significantly enhanced iNOS transcription
[6]; 1 μg/ml doxorubicin
  HIF-1α reporter activity, comparison of concentrations: most potent upregulation
[6]; doxorubicin 0.1, 1, or 10 μg/ml, 48 hours post-treatment
  HIF-1α reporter activity: significant increase in HIF-1α reporter activity
[7]; doxorubicin 10 mg/kg i.v. once vs saline, day 16
  HIF-1α reporter activity in tumors on day 16: fell to a level similar to that in the control tumors
[7]; doxorubicin 10 mg/kg i.v. once vs saline, from 3 days post-treatment
  HIF-1α reporter activity in tumors: significantly elevated the HIF-1α reporter activity
[7]; in vivo
  peak in HIF-1 activation after doxorubicin treatment: 3 to 5 days
[7]; mouse, in vivo
  temporal course of doxorubicin-induced normoxic HIF-1α accumulation: 3-5 days post-treatment
[8]
  secreted VEGF level: significantly elevated the secreted VEGF level
[9]
  perfused tumor fraction (Hoechst 33342 labeling): no significant difference
[10]
  HIF-1α protein expression: enhanced
[11]
  hypoxic tumor fraction (pimonidazole staining): no significant difference
[12]
  intracellular NO levels: increased intracellular NO levels
[13]
  fraction of tumor-activated macrophages (CD68): no significant difference
[14]
  STAT1 expression: upregulated the expression of STAT1
  STAT1 phosphorylation (Tyr701 and Ser727): promoted the activation of STAT1
